The values that follow come from patent US20050197350A1, “Novel quinoline, tetrahydroquinazoline, and pyrimidine derivatives and methods of treatment related to the use thereof” (TAISHO PHARMACEUTICAL CO., LTD., priority 2003, published 2005).

The test system of this experiment is MCH receptors. As to the kind of experiment: MCH receptor activity class (method not given). The conditions noted are these: activity class per percent of control at 10^-7 M or IC50.

On to `CC(C(=O)N[C@H]1CC[C@@H](Nc2nc3c(c(N(C)C)n2)CCCC3)CC1)c1ccc(N2Cc3ccccc3C2=O)cc1` (stereo partly drawn) [compound 985, N-(cis-4-{[4-(dimethylamino)-5,6,7,8-tetrahydroquinazolin-2-yl]amino}cyclohexyl)-2-[4-(1-oxo-1,3-dihydro-2H-isoindol-2-yl)pheny]propanamide], for which the class is 2 (Class 2: The value of percent of control at 10^−7 M was from 40% to 60% or the value of IC′50 was from 50 nM to 200 nM.).

Regarding `CN(C)c1nc(N[C@H]2CC[C@@H](NC(=O)Cc3c[nH]c4ccccc34)CC2)nc2c1CCCC2` [compound 986, N-(cis-4-{[4-(diniethylamino)-5,6,7,8-tetrahydroquinazolin-2-yl]amino}cyclohexyl)-2-(1H-indol-3-yl)acetamide], the class is recorded as 1 (Class 1: The value of percent of control at 10^−7 M was less than 40% or the value of IC50 was less than 50 nM.).

For `Cc1sc(-c2ccccc2)nc1CC(=O)N[C@H]1CC[C@@H](Nc2nc3c(c(N(C)C)n2)CCCC3)CC1` [compound 987], the class was 3 (Class 3 The value of percent of control at 10^−7 M was more than 60% or the value of IC50 was more than 200 nM.).

As to `COc1ccc(CSC2(CC(=O)N[C@H]3CC[C@@H](Nc4nc5c(c(N(C)C)n4)CCCC5)CC3)CCCCC2)cc1` [compound 989], the class is reported as 3 (Class 3 The value of percent of control at 10^−7 M was more than 60% or the value of IC50 was more than 200 nM.).

`COc1ccc2c(CC(=O)N[C@H]3CC[C@@H](Nc4nc5c(c(N(C)C)n4)CCCC5)CC3)cc(=O)oc2c1` [compound 990]: the class is on record as 1 (Class 1: The value of percent of control at 10^−7 M was less than 40% or the value of IC50 was less than 50 nM.).

`Cc1cc(C)c(NC(=O)Nc2ccc(OC(F)(F)F)cc2)c(C(=O)N[C@H]2CC[C@@H](Nc3nc4c(c(N(C)C)n3)CCCC4)CC2)c1` [compound 993]: the class is 1 (Class 1: The value of percent of control at 10^−7 M was less than 40% or the value of IC50 was less than 50 nM.).

Consider `CN(C)c1nc(N[C@H]2CC[C@@H](NC(=O)c3cc(Cl)cc(Cl)c3NC(=O)C#Cc3ccccc3)CC2)nc2c1CCCC2` [compound 994], for which the class is given as 1 (Class 1: The value of percent of control at 10^−7 M was less than 40% or the value of IC50 was less than 50 nM.).

Regarding `CN(C)c1nc(N[C@H]2CC[C@@H](NC(=O)c3cccc(-n4c(-c5ccc(Br)cc5)cc5c4CC(C)(C)CC5=O)c3)CC2)nc2c1CCCC2` [compound 995], the class is reported as 3 (Class 3 The value of percent of control at 10^−7 M was more than 60% or the value of IC50 was more than 200 nM.).

`CN(C)c1nc(N[C@H]2CC[C@@H](NC(=O)Cc3ccccc3C(=O)Nc3ccc(Cl)cc3Cl)CC2)nc2c1CCCC2` [compound 999]: the class was 3 (Class 3 The value of percent of control at 10^−7 M was more than 60% or the value of IC50 was more than 200 nM.).

As for `Cc1c(C(=O)N[C@H]2CC[C@@H](Nc3nc4c(c(N(C)C)n3)CCCC4)CC2)cc(-c2ccccc2)n1CCCN1CCOCC1` [compound 1000], the class is recorded as 1 (Class 1: The value of percent of control at 10^−7 M was less than 40% or the value of IC50 was less than 50 nM.).

For `CN(C)c1nc(N[C@H]2CC[C@@H](NC(=O)CCCc3ccc([N+](=O)[O-])cc3)CC2)nc2c1CCCC2` [compound 1001], the class is given as 1 (Class 1: The value of percent of control at 10^−7 M was less than 40% or the value of IC50 was less than 50 nM.).

In the case of `CN(C)c1nc(N[C@H]2CC[C@@H](NC(=O)/C=C/c3ccccc3[N+](=O)[O-])CC2)nc2c1CCCC2` [compound 1002], the class is 3 (Class 3 The value of percent of control at 10^−7 M was more than 60% or the value of IC50 was more than 200 nM.).

In the case of `CN(C)c1nc(N[C@H]2CC[C@@H](NC(=O)Cc3cccc(Oc4ccccc4)c3)CC2)nc2c1CCCC2` [compound 1003], the class is given as 2 (Class 2: The value of percent of control at 10^−7 M was from 40% to 60% or the value of IC′50 was from 50 nM to 200 nM.).

Take `CN(C)c1nc(N[C@H]2CC[C@@H](NC(=O)Cc3ccc(Oc4ccccc4)cc3)CC2)nc2c1CCCC2` [compound 1004]: the class is 2 (Class 2: The value of percent of control at 10^−7 M was from 40% to 60% or the value of IC′50 was from 50 nM to 200 nM.).

For the molecule `CN(C)c1nc(N[C@H]2CC[C@@H](NC(=O)Cc3c(-c4ccccc4)[nH]c4ccccc34)CC2)nc2c1CCCC2` [compound 1005], the class was 1 (Class 1: The value of percent of control at 10^−7 M was less than 40% or the value of IC50 was less than 50 nM.).

Consider `CN(C)c1nc(N[C@H]2CC[C@@H](NC(=O)c3cccc(Oc4ccccc4)c3)CC2)nc2c1CCCC2` [compound 1007], for which the class is 1 (Class 1: The value of percent of control at 10^−7 M was less than 40% or the value of IC50 was less than 50 nM.).

On to `CN(C)c1nc(N[C@H]2CC[C@@H](NC(=O)c3ccccc3CCc3ccccc3)CC2)nc2c1CCCC2` [compound 1008], for which the class is recorded as 3 (Class 3 The value of percent of control at 10^−7 M was more than 60% or the value of IC50 was more than 200 nM.).

For `CN(C)c1nc(N[C@H]2CC[C@@H](NC(=O)c3cccc(C(=O)c4ccccc4)c3)CC2)nc2c1CCCC2` [compound 1009], the class is 3 (Class 3 The value of percent of control at 10^−7 M was more than 60% or the value of IC50 was more than 200 nM.).

On to `CCSC(C(=O)N[C@H]1CC[C@@H](Nc2nc3c(c(N(C)C)n2)CCCC3)CC1)(c1ccccc1)c1ccccc1` [compound 1010], for which the class is given as 2 (Class 2: The value of percent of control at 10^−7 M was from 40% to 60% or the value of IC′50 was from 50 nM to 200 nM.).

Take `CN(C)c1nc(N[C@H]2CC[C@@H](NC(=O)c3ccccc3Sc3ccccc3C#N)CC2)nc2c1CCCC2` [compound 1011]: the class is on record as 3 (Class 3 The value of percent of control at 10^−7 M was more than 60% or the value of IC50 was more than 200 nM.).

As for `COc1cc(CC(=O)N[C@H]2CC[C@@H](Nc3nc4c(c(N(C)C)n3)CCCC4)CC2)ccc1OCc1ccccc1` [compound 1012], the class is on record as 3 (Class 3 The value of percent of control at 10^−7 M was more than 60% or the value of IC50 was more than 200 nM.).

For the molecule `C[C@@H](NC(=O)c1ccccc1C(=O)N[C@H]1CC[C@@H](Nc2nc3c(c(N(C)C)n2)CCCC3)CC1)c1cccc2ccccc12` [compound 1013], the class is given as 3 (Class 3 The value of percent of control at 10^−7 M was more than 60% or the value of IC50 was more than 200 nM.).

With `C[C@H](C(=O)N[C@H]1CC[C@@H](Nc2nc3c(c(N(C)C)n2)CCCC3)CC1)c1cccc(C(=O)c2ccccc2)c1` [compound 1014], the class is listed as 3 (Class 3 The value of percent of control at 10^−7 M was more than 60% or the value of IC50 was more than 200 nM.).

Turning to `C[C@@H](c1ccccc1)N(C(=O)c1ccccc1C(=O)N[C@H]1CC[C@@H](Nc2nc3c(c(N(C)C)n2)CCCC3)CC1)[C@@H](C)c1ccccc1` [compound 1015], the class is reported as 1 (Class 1: The value of percent of control at 10^−7 M was less than 40% or the value of IC50 was less than 50 nM.).

In the case of `C[C@H](C(=O)N[C@H]1CC[C@@H](Nc2nc3c(c(N(C)C)n2)CCCC3)CC1)c1ccc(-c2ccccc2)c(F)c1` [compound 1016], the class is 2 (Class 2: The value of percent of control at 10^−7 M was from 40% to 60% or the value of IC′50 was from 50 nM to 200 nM.).

For the molecule `CN(C)c1nc(N[C@H]2CC[C@@H](NC(=O)CCC(=O)c3cccs3)CC2)nc2c1CCCC2` [compound 1021], the class was 3 (Class 3 The value of percent of control at 10^−7 M was more than 60% or the value of IC50 was more than 200 nM.).

`CN(C)c1nc(N[C@H]2CC[C@@H](NC(=O)CCCc3cccs3)CC2)nc2c1CCCC2` [compound 1022]: the class is 3 (Class 3 The value of percent of control at 10^−7 M was more than 60% or the value of IC50 was more than 200 nM.).

Consider `CN(C)c1nc(N[C@H]2CC[C@@H](NC(=O)COc3c(Cl)cc(Cl)cc3Cl)CC2)nc2c1CCCC2` [compound 1023], for which the class is 3 (Class 3 The value of percent of control at 10^−7 M was more than 60% or the value of IC50 was more than 200 nM.).

`CN(C)c1nc(N[C@H]2CC[C@@H](NC(=O)Cc3c[nH]c4ccc(OCc5ccccc5)cc34)CC2)nc2c1CCCC2` [compound 1024]: the class is 3 (Class 3 The value of percent of control at 10^−7 M was more than 60% or the value of IC50 was more than 200 nM.).

Regarding `CN(C)c1nc(N[C@H]2CC[C@@H](NC(=O)c3ccccc3C(=O)c3cccc4ccccc34)CC2)nc2c1CCCC2` [compound 1025], the class is on record as 3 (Class 3 The value of percent of control at 10^−7 M was more than 60% or the value of IC50 was more than 200 nM.).

As for `COc1ccc(C(=O)N[C@H]2CC[C@@H](Nc3nc4c(c(N(C)C)n3)CCCC4)CC2)cc1OCc1ccccc1` [compound 1026], the class is given as 1 (Class 1: The value of percent of control at 10^−7 M was less than 40% or the value of IC50 was less than 50 nM.).

Take `Cc1c(C(=O)N[C@H]2CC[C@@H](Nc3nc4c(c(N(C)C)n3)CCCC4)CC2)cc(-c2ccccc2)n1-c1ccccc1` [compound 1027]: the class is reported as 2 (Class 2: The value of percent of control at 10^−7 M was from 40% to 60% or the value of IC′50 was from 50 nM to 200 nM.).

Take `Cc1c(C(=O)N[C@H]2CC[C@@H](Nc3nc4c(c(N(C)C)n3)CCCC4)CC2)cc(-c2ccccc2)n1CCSCc1c(F)cccc1Cl` [compound 1028, 1-{2-[(2-chloro-6-fluorobenzyl)thio]ethyl}-N-(cis-4-{[4-(dimethy-lamino)-5,6,7,8-tetrahydroquinazolin-2-yl]amino}-cyclohexyl)-2-methyl-5-phenyl-1H-pyrrole-3-carboxamide]: the class was 2 (Class 2: The value of percent of control at 10^−7 M was from 40% to 60% or the value of IC′50 was from 50 nM to 200 nM.).

In the case of `CN(C)c1nc(N[C@H]2CC[C@@H](NC(=O)c3c4ccccc4cc4ccccc34)CC2)nc2c1CCCC2` [compound 1029], the class is recorded as 3 (Class 3 The value of percent of control at 10^−7 M was more than 60% or the value of IC50 was more than 200 nM.).

Regarding `CN(C)c1nc(N[C@H]2CC[C@@H](NC(=O)c3ccccc3Oc3ccccc3)CC2)nc2c1CCCC2` [compound 1030], the class is given as 1 (Class 1: The value of percent of control at 10^−7 M was less than 40% or the value of IC50 was less than 50 nM.).
